Data reported in patent US7368470B2, “Substituted 3-pyrrolidine-indole derivatives” (Gruenenthal GmbH, priority 2003, dated 2008).

How the values were obtained:
[1] = system: binding site 2 of the sodium channel (batrachotoxin (BTX) binding site); assay: Binding test on the sodium channel, binding site 2 (BTX bond), [3H]-batrachotoxinin A20 α-benzoate as ligand; design: species or system rat; conditions: for BTX bond, % inhibition [10 μM]: rat cerebrocortex synaptosomes, ligand 10 nM, 25° C., 120 min
[2] = biological target: T1, noradrenalin reuptake (NA uptake) (Rattus norvegicus, UniProt Q9WTR4); assay: Noradrenalin reuptake inhibition (NA uptake inhibition) in rat brain synaptosomes; type: biochemical; conditions: synaptosomes from male rats' brains
T1 construct: These vesicular particles were isolated from the hypothalamus of male rats' brains for NA uptake; from tissue; host or cells: rat brain synaptosomes (P2 fraction; cerebral cortex / hypothalamus of male rats)
From the text: b) Tests on Noradrenalin Reuptake Inhibition
In order to be able to carry out these in vitro studies, synaptosomes from rats' cerebral cortices were freshly isolated. A “P2” fraction, prepared according to Gray and Whittaker's instructions (E. G. Gray and V. P. Whittaker (1962) J. Anat. 76, 79-88) was used in each case. These vesicular particles were isolated from the hypothalamus of male rats' brains for NA uptake.
A detailed description of the method may be found in the literature (M. Ch. Frink, H.-H. Hennies, W. Englberger, M. Haurand and B. Wilffert (1996) Arzneim.-Frosch./Drug Res. 46 (III), 11, 1029-1036).

[3] = biological target: T2, serotonin reuptake (5HT uptake) (Rattus norvegicus, UniProt P31652); assay: Serotonin reuptake inhibition (5HT uptake inhibition) in rat brain synaptosomes; type: biochemical; conditions: synaptosomes from male rats' brains
T2 construct: These vesicular particles were isolated from the hypothalamus of male rats' brains for 5HT uptake; from tissue; host or cells: rat brain synaptosomes (P2 fraction; cerebral cortex / hypothalamus of male rats)
From the text: a) Tests on Serotonin Reuptake Inhibition
In order to be able to carry out these in vitro studies, synaptosomes from rats' cerebral cortices were freshly isolated. A “P2” fraction prepared according to Gray and Whittaker's instructions (E. G. Gray and V. P. Whittaker (1962) J. Anat. 76, 79-88) was used in each case. These vesicular particles were isolated from the hypothalamus of male rats' brains for 5HT uptake.
A detailed description of the method may be found in the literature (M. Ch. Frink, H.-H. Hennies, W. Englberger, M. Haurand and B. Wilffert (1996) Arzneim.-Forsch./Drug Res. 46 (III), 11, 1029-1036).

T1 sequence (Q9WTR4 1-597): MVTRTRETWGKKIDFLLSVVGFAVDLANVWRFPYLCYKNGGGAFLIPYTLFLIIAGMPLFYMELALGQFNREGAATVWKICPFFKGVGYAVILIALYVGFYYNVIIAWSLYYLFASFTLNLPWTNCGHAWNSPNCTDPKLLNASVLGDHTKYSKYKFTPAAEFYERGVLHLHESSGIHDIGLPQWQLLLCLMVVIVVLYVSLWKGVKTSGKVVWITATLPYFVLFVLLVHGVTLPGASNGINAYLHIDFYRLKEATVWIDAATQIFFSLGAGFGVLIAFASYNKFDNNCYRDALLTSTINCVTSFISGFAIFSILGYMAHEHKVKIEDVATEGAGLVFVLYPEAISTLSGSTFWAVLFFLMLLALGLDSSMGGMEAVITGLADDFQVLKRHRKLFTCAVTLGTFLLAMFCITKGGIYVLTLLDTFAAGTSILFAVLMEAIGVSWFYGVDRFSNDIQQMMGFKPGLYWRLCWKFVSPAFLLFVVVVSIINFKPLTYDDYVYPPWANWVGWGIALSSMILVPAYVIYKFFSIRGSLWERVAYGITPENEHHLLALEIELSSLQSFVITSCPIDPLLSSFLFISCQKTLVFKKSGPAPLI
T2 sequence (P31652 whole entry): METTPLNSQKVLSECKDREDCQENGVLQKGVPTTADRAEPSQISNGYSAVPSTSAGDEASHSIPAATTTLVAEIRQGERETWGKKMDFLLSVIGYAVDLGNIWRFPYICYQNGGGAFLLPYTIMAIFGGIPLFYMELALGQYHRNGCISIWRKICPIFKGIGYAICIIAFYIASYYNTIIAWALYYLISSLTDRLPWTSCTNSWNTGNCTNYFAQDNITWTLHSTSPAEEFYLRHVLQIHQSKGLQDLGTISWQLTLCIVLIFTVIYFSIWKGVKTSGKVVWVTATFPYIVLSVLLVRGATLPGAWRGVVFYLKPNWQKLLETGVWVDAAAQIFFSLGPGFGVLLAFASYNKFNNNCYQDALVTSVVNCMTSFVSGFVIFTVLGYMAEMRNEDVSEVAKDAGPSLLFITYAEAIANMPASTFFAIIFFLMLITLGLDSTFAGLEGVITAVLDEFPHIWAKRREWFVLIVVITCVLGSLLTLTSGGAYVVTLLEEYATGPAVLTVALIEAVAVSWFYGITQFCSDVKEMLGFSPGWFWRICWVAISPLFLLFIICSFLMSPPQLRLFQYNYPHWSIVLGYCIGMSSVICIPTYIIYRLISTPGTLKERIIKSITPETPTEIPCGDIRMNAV

| inhibition at 10 µM [3] | Compound | BTX bond, % inhibition [10 μM] [1] | other results |
| --- | --- | --- | --- |
| – | CCCc1ccc(C(=O)N2CCC(c3cn(Cc4ccc(C(F)(F)F)cc4)c4ccccc34)C2)cc1 (stereo not shown) [Compound 1, (4-propyl-phenyl)-{3-[1-(4-trifluoromethyl-benzyl)-1H-indol-3-yl]-pyrrolidin-1-yl}-methanone] | 95% | – |
| – | COc1ccc(C(=O)N2CCC(c3cn(CCC(C)C)c4ccccc34)C2)cc1OC (stereo not shown) [Compound 2, (3,4-dimethoxy-phenyl)-{3-[1-(3-methyl-butyl)-1H-indol-3-yl]-pyrrolidin-1-yl}-methanone] | 93% | – |
| – | CCCCn1cc(C2CCN(C(=O)c3ccc(C(F)(F)F)nc3C)C2)c2ccccc21 (stereo not shown) [Compound 3] | 93% | – |
| – | COc1cccc(Cn2cc(C3CCN(C(=O)C=Cc4ccccc4)C3)c3ccccc32)c1 (stereo not shown) [Compound 4, 1-{3-[1-(3-methoxy-benzyl)-1H-indol-3-yl]-pyrrolidin-1-yl}-3-phenyl-propenone] | 92% | – |
| – | O=C(c1cccc(F)c1F)N1CCC(c2cn(Cc3ccc(C(F)(F)F)cc3)c3ccccc23)C1 (stereo not shown) [Compound 5, (2,3-difluoro-phenyl)-{3-[1-(4-trifluoromethyl-benzyl)-1H-indol-3-yl]-pyrrolidin-1-yl}-methanone] | 92% | – |
| – | CC(C)CCn1cc(C2CCN(C(=O)c3ccc(C(C)(C)C)cc3)C2)c2ccccc21 (stereo not shown) [Compound 6, (4-tert-butyl-phenyl)-{3-[1-(3-methyl-butyl)-1H-indol-3-yl]-pyrrolidin-1-yl}-methanone] | 91% | – |
| – | CCCc1ccc(C(=O)N2CCC(c3cn(Cc4ccc(Br)cc4)c4ccccc34)C2)cc1 (stereo not shown) [Compound 7, {3-[1-(4-bromo-benzyl)-1H-indol-3-yl]-pyrrolidin-1-yl}-(4-propyl-phenyl)-methanone] | 89% | – |
| – | CCOc1ccccc1C(=O)N1CCC(c2cn(Cc3cccc(OC)c3)c3ccccc23)C1 (stereo not shown) [Compound 8, (2-ethoxy-phenyl)-{3-[1-(3-methoxy-benzyl)-1H-indol-3-yl]-pyrrolidin-1-yl}-methanone] | 88% | – |
| – | CCn1cc(C2CCN(C(=O)c3ccc(C(F)(F)F)c(F)c3)C2)c2ccccc21 (stereo not shown) [Compound 9] | 84% | – |
| – | CCn1cc(C2CCN(C(=O)c3cccc(C)c3C)C2)c2ccccc21 (stereo not shown) [Compound 10, (2,3-dimethyl-phenyl)-[3-(1-ethyl-1H-indol-3-yl)-pyrrolidin-1-yl]-methanone] | 83% | – |
| – | COc1cccc(Cn2cc(C3CCN(C(=O)C(C)Oc4ccccc4)C3)c3ccccc32)c1 (stereo not shown) [Compound 11, 1-{3-[1-(3-methoxy-benzyl)-1H-indol-3-yl]-pyrrolidin-1-yl}-2-phenoxy-propan-1-one] | 83% | – |
| – | CCn1cc(C2CCN(C(=O)COc3cccc(Cl)c3)C2)c2ccccc21 (stereo not shown) [Compound 12, 2-(3-chloro-phenoxy)-1-[3-(1-ethyl-1H-indol-3-yl)-pyrrolidin-1-yl]-ethanone] | 83% | – |
| – | CC(Oc1ccccc1)C(=O)N1CCC(c2cn(Cc3ccc(C#N)cc3)c3ccccc23)C1 (stereo not shown) [Compound 13, 4-(3-[1-(2-phenoxy-propionyl)-pyrrolidin-3-yl]-indol-1-ylmethyl}-benzonitrile] | 82% | – |
| – | Cc1cc(C)c(S(=O)(=O)N2CCC(c3cn(CC(=O)N(C)C)c4ccccc34)C2)c(C)c1 (stereo not shown) [Compound 14, N,N-dimethyl-2-{3-[1-(2,4,6-trimethyl-benzenesulphonyl)-pyrrolidin-3-yl]-indol-1-yl}-acetamide] | 80% | – |
| – | CCn1cc(C2CCN(C(=O)c3ccc(Cl)c(Cl)c3)C2)c2ccccc21 (stereo not shown) [Compound 15, (3,4-dichloro-phenyl)-[3-(1-ethyl-1H-indol-3-yl)-pyrrolidin-1-yl]-methanone] | 80% | – |
| – | CN(C)C(=O)Cn1cc(C2CCN(C(=S)Nc3cccc(C(F)(F)F)c3)C2)c2ccccc21 (stereo not shown) [Compound 16, N,N-dimethyl-2-{3-[1-(3-trifluoromethyl-phenylthiocarbamoyl)-pyrrolidin-3-yl]-indol-1-yl}-acetamide] | – | inhibition at 10 µM [2]: 50% |

| inhibition at 10 µM [3] | Compound | BTX bond, % inhibition [10 μM] [1] | other results |
| --- | --- | --- | --- |
| 43% | CN(C)C(=O)Cn1cc(C2CCN(C(=O)NCc3ccc(Cl)c(Cl)c3)C2)c2ccccc21 (stereo not shown) [Compound 17, 3-(1-dimethylcarbamoylmethyl-1H-indol-3-yl)-pyrrolidine-1-carboxylic acid 3,4-dichloro-benzylamide] | – | – |
| 86% | COc1ccc(OC)c(CC(=O)N2CCC(c3cn(CC(=O)N(C)C)c4ccccc34)C2)c1 (stereo not shown) [Compound 19, 2-(3-{1-[2-(2,5-dimethoxy-phenyl)-acetyl]-pyrrolidin-3-yl}-indol-1-yl)-N,N-dimethyl-acetamide] | – | – |
| 84% | CN(C)C(=O)Cn1cc(C2CCN(C(=O)c3ccccn3)C2)c2ccccc21 (stereo not shown) [Compound 21, N,N-dimethyl-2-{3-[1-(pyridin-2-carbonyl)-pyrrolidin-3-yl]-indol-1-yl}-acetamide] | – | – |
| 58% | O=C(C1CCC1)N1CCC(c2c[nH]c3ccccc23)C1 (stereo not shown) [Compound 22, cyclobutyl-[3-(1H-indol-3-yl)-pyrrolidin-1-yl]-methanone] | – | – |
| 49% | CCCCC(=O)N1CCC(c2cn(CC(=O)N(CC)CC)c3ccccc23)C1 (stereo not shown) [Compound 23, N,N-diethyl-2-[3-(1-pentanoyl-pyrrolidin-3-yl)-indol-1-yl]-acetamide] | – | – |
| – | CCN(CC)C(=O)Cn1cc(C2CCN(C(=O)C3CCCC3)C2)c2ccccc21 (stereo not shown) [Compound 25, 2-1[3-(1-cyclopentanecarbonyl-pyrrolidin-3-yl)-indol-1-yl]-N,N-diethyl acetamide] | – | 5HT uptake, % inhibition [10 μM] [3]: 80% |
| 70% | O=C(c1ccccc1Cl)N1CCC(c2c[nH]c3ccccc23)C1 (stereo not shown) [Compound 27, (2-chloro-phenyl)-[3-(1H-indol-3-yl)-pyrrolidin-1-yl]-methanone] | – | – |
| 63% | Cc1ccc(S(=O)(=O)NC(Cc2ccccc2)C(=O)N2CCC(c3cn(CC(=O)N(C)C)c4ccccc34)C2)cc1 (stereo not shown) [Compound 29, N,N-dimethyl-2-(3-{1-[3-phenyl-2-(toluene-4-sulphonylamino)-propionyl]-pyrrolidin-3-yl)-indol-1-yl)-acetamide] | – | – |
| 47% | CN(C)C(=O)Cn1cc(C2CCN(S(=O)(=O)Cc3ccccc3)C2)c2ccccc21 (stereo not shown) [Compound 30, N,N-dimethyl-2-[3-(1-phenylmethanesulphonyl-pyrrolidin-3-yl)-indol-1-yl]-acetamide] | – | – |
| – | CCn1cc(C2CCN(C(=O)c3c(-c4ccccc4Cl)noc3C)C2)c2ccccc21 (stereo not shown) [Compound 32, [3-(2-chloro-phenyl)-5-methyl-isoxazol-4-yl]-[3-(1-ethyl-1H-indol-3-yl)-pyrrolidin-1-yl]-methanone] | – | inhibition at 10 µM [2]: 44% |
| 46% | Cn1cc(C2CCN(C(=O)c3c(F)c(F)c(F)c(F)c3F)C2)c2ccccc21 (stereo not shown) [Compound 47, [3-(1-methyl-1H-indol-3-yl)-pyrrolidin-1-yl]-pentafluorophenyl-methanone] | – | – |
| 83% | Cc1cc(C)cc(Cn2cc(C3CCN(CC(=O)Nc4scc(C)c4C#N)C3)c3ccccc32)c1 (stereo not shown) [Compound 50, N-(3-cyano-4-methyl-thiophen-2-yl)-2-{3-[1-(3,5-dimethyl-benzyl)-1H-indol-3-yl]-pyrrolidin-1-yl}acetamide] | – | – |
| – | CCN(CC)C(=O)Cn1cc(C2CCN(CC(=O)Nc3ccc(C(F)(F)F)cc3)C2)c2ccccc21 (stereo not shown) [Compound 51, N,N-diethyl-2-(3-{1-[(4-trifluoromethyl-phenylcarbamoyl)-methyl]-pyrrolidin-3-yl}-indol-1-yl)-acetamide] | – | inhibition at 10 µM [2]: 57% |
| – | O=C(CN1CCC(c2cn(Cc3ccc(F)c(F)c3)c3ccccc23)C1)Nc1csc(C(F)(F)F)c1-c1ccccc1 (stereo not shown) [Compound 53, 2-{3-[1-(3,4-difluoro-benzyl)-1H-indol-3-yl]-pyrrolidin-1-yl}-N-(4-phenyl-5-trifluiommethyl-thiophen-3-yl)-acetamide] | – | 5HT uptake, % inhibition [10 μM] [3]: 55% |
| – | [^3H]-batrachotoxinin A20 α-benzoate [reference compound] | – | Kd ([1]; radioligand, mean±SEM, N=3 independent test series, read-out: KD value for this binding site): 24.6 ± 1.56 nM |

| Compound | inhibition at 10 µM [3] | BTX bond, % inhibition [10 μM] [1] | other results |
| --- | --- | --- | --- |
| Cc1oc(C(C)(C)C)cc1C(=O)N1CCC(c2cn(Cc3ccccc3C#N)c3ccccc23)C1 (stereo not shown) [Compound 33, 2-{3-[1-(5-tert-butyl-2-methyl-furan-3-carbonyl)pyrrolidin-3-yl]-indol-1-ylmethyl)-benzonitrile] | 87% | 89% | – |
| COc1cccc(Cn2cc(C3CCN(C(=O)CCc4ccccc4)C3)c3ccccc32)c1 (stereo not shown) [Compound 36, 1-{3-[1-(3-methoxy-benzyl)-1H-indol-3-yl]-pyrrolidin-1-yl}-3-phenyl-propan-1-one] | 42% | 96% | – |
| COc1cccc(Cn2cc(C3CCN(C(=O)c4ccc(C)cc4)C3)c3ccccc32)c1 (stereo not shown) [Compound 43, {3-[1-(3-methoxy-benzyl)-1H-indol-3-yl]-pyrrolidin-1-yl}-p-tolyl-methanone] | 48% | 92% | – |
